As a reminder, the IC50 is the concentration that gives 50% inhibition.

The record followed here is PMC7261837, “Circumdatin D Exerts Neuroprotective Effects by Attenuating LPS-Induced Pro-Inflammatory Responses and Downregulating Acetylcholinesterase Activity In Vitro and In Vivo” (Frontiers in Pharmacology, 2020).

One series concerns NF-κB. Description: NF-κB luciferase reporter assay. It is filed as cell-based. The settings on record: Homo sapiens; SW480 cells stably transfected with NF-κB luciferase reporter gene, induced by LPS; mean ± SD (n = 3); read-out: NF-κB Activation IC50. As for the experimental part:
SW480-NF-κB cells were seeded at a density of 5 × 10^4 cells/well in 24-well plates and incubated with circumdatins with or without LPS stimulation for 6 h. The κB-dependent luciferase reporter activity in cell extracts was monitored using an automated microplate reader.
Background: Reporter assays use an easily measured gene product as a stand-in for the process of interest.

A further series relates to C. elegans CL4176. Description: qRT-PCR of ace-1, ace-2, F22E5.6 and ZC239.12 in CL4176. Type of series: in vivo, Caenorhabditis elegans. The settings on record: CL4176, 36 h post temperature up-shift. The text has this:
Related gene expression levels were detected as [Xin et al. (2013)] described. After treatment, CL4176 worms were collected and total RNA was extracted using TRIzol method. The cDNA was synthesized using cDNA synthesis kit (Invitrogen) according to manual instructions. The mRNA expression of target genes viz. F22E5.6, ZC239.12, ace-1 and ace-2 was quantified in comparison to housekeeping gene F23B2.13 using SYBR green detection method on ABI 7500 system (Applied Biosystems). The relative gene expression was calculated using comparative Ct (ΔΔCt) method. The following primers in Table 2 were used in this study.
A general note: Quantitative PCR measures a nucleic acid by following its amplification.

Another series concerns TLR4 and MyD88. The experiment in a line: Western blot of TLR4 and MyD88 in LPS-induced BV-2 cells. It is filed as cell-based, murine. The settings on record: 1 μg/ml LPS, 10, 20, 50 μM, 6 h. As for the experimental part:
(§1) Total cell proteins were lysed using cell extraction buffer containing phenylmethylsulfonyl ﬂuoride and protease inhibitor cocktail. The cytosolic and nuclear extracts were collected using the Nuclear and Cytosolic extraction kit. The protein extracts were separated on SDS-PAGE and transferred to PVDF membranes (Millipore). The membrane was blocked with 5% nonfat milk for 1 h at room temperature, and incubated with indicated primary antibodies overnight at 4°C. After washing, the membrane was incubated with secondary antibodies conjugated to horseradish peroxidase (Proteintech, USA) at room temperature for 1 h. Then, the proteins of interest were visualized utilizing a chemiluminescence (ECL) detection system. The relative optical densities were analyzed using the Image Master™ 2D Elite software.
A general note: A western blot detects proteins with antibodies after separation by electrophoresis.

For series [1], the target named is T1, AChE in primary cortical neurons (Rattus norvegicus, UniProt P37136).
T1 construct: primary cortical neurons were isolated from embryos of pregnant Sprague Dawley rats of E-18; endogenous in cells; host or cells: primary cortical neurons from E-18 Sprague Dawley rat embryos
T1 sequence (P37136 32-614): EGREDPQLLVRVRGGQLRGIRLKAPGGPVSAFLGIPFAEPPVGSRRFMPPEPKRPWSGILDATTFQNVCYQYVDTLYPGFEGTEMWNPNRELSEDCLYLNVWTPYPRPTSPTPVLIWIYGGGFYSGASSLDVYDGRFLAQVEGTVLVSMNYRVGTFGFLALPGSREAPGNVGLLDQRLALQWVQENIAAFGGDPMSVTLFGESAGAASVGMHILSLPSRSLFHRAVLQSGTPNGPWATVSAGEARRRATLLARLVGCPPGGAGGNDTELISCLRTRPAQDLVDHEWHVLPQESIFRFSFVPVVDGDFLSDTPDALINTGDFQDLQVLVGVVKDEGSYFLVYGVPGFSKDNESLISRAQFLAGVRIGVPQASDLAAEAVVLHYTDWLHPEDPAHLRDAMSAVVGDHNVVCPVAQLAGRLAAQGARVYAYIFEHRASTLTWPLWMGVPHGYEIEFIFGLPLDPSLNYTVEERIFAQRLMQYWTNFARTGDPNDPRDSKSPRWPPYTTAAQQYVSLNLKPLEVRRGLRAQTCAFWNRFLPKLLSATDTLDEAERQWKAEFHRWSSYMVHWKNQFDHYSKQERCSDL
The experiment in a line: AChE activity in LPS-treated primary neurons (modified Ellman). Type of series: cell-based. The settings on record: 1 μg/ml LPS, 1–100 μM, 48 h. As for the experimental part:
AChE activities in vitro and in vivo were assessed by a modified Ellman's spectrophotometric method ([Szwajgier, 2015]). Briefly, AChE (80 μl) in phosphate buffer (Na2HPO4/NaH2PO4, pH 8.0) and compound (20 μl) diluted in same phosphate buffer were added to 96 microplates as the reaction mixture. The mixture was incubated at 37°C for 30 min before addition of 10 μl 5,5′-dithiobis (2-nitrobenzoic acid) (DTNB) (3 mM) and 10 μl acetylthiocholine iodide (ATCI) (15 mM). After incubation for 20 min, the absorbance was detected at 412 nm using a microplate spectrophotometer (Thermo Scientifics, USA). […] The inhibitory rate of AChE was calculated, and the IC50 values were calculated by GraphPad Prism® 5.0 software (GraphPad Inc., San Diego, USA).

For the next series, the system named is NF-κB signaling pathway. Description: NF-κB p65 translocation and IKK/IκB phosphorylation in LPS-induced BV-2 cells. Type of series: cell-based, murine. The settings on record: 1 μg/ml LPS, 10, 20, 50 μM, 3 h. As for the experimental part:
BV2 cells were seeded on glass coverslips and treated with circumdatin D in the presence or absence of LPS for indicated time. After that, the cells were washed twice with PBS and fixed with cold 4% paraformaldehyde for 30 min. Then, the cells were permeabilized with 0.1% Triton X-100 for 10 min and blocked with 5% bovine serum albumin for 1 h. After incubation with primary antibodies overnight at 4°C, the cells were incubated with Alexa Fluor 488-conjugated secondary antibodies (Proteintech, USA) for 1 h at room temperature. Furthermore, Hochest 33342 was added to stain cell nuclei. Images were acquired and analyzed using a confocal microscope (Leica, Germany).
as §1

The test system of series [2] is primary cortical neurons co-cultured with LPS-activated primary microglia. The experiment in a line: Microglia-neuron co-culture neuroprotection (MTT, TUNEL, crystal violet). Type of series: cell-based, Sprague Dawley rats. As for the experimental part: For co-culture experiments, primary microglia cells were seeded on the upper insert of Transwell chambers (pore size 3 μm; Corning Costar, USA) in 24-well plates, and neurons were grown in the lower plate wells. Circumdatin D was added to primary microglia cells 1 h before LPS stimulation. After 48 h of coculture, the neurons in the bottom of 24-well plate were collected for the following experiments.
[…] Then, the cells were stained with 1% crystal violet solution for 15 min. Images were captured with an optical microscope. Five different fields were selected for each group for observing cellular morphology.
[…] TUNEL staining was performed to detect apoptosis using in situ cell death detection Kit (Roche Diagnostics, Mannheim, Germany). Hochest 33342 staining was used to detect total cell nuclei. Images were taken and analyzed on a confocal microscopy (Leica, Germany). Six fields from each sample were randomly selected and analyzed.

The next series has as its system BV-2 cells. The experiment in a line: RT-PCR of TNF-α, IL-1β, iNOS and COX-2 mRNA in LPS-induced BV-2 cells. It is filed as cell-based, murine. Conditions: 1 μg/ml LPS, 10, 20, 50 μM, 24 h. As for the experimental part: Total RNA was extracted using TRIzol reagent (Life Technologies, NY) and then reverse-transcribed into cDNA by reverse transcriptase (Invitrogen). mRNA expression of target genes iNOS, COX-2, IL-1β and TNF-α was quantified in comparison to housekeeping gene GAPDH using SYBR green detection method on ABI 7500 system (Applied Biosystems). The relative gene expression was calculated using comparative Ct (ΔΔCt) method. The following primers in Table 1 were used in this study.

Another series concerns primary cortical neurons. Description: MTT assay in primary neuron-enriched cells. It is filed as cell-based, Sprague Dawley rats. Conditions: 48 h, 1–100 μM. As for the experimental part: Primary microglia were prepared from the cortical tissue of neonatal (1–3 d) Sprague Dawley rats as [Ni and Aschner (2010)] described and primary cortical neurons were isolated from embryos of pregnant Sprague Dawley rats of E-18 ([Zeng et al., 2012]). All experimental manipulations with the animals was reviewed and approved by the animal experimental ethics committee of Peking University. The animals used in the work were performed in accordance with the Animal Care and Use Guidelines of Peking University.
In vitro cytotoxicity was detected using the MTT assay. Cells were treated with different concentrations of circumdatins in the presence or absence of LPS for 48 h. Then, MTT reagent was added to each well and the plates were further incubated at 37°C for 4 h. The absorbance was read at 570 nm using a microplate spectrophotometer (Thermo Scientifics, USA).

With `COc1ccc2c(c1)C(=O)N1CCC[C@H]1c1nc3ccc(OC)cc3c(=O)n1-2` [circumdatin D], the IC50 in the series on NF-κB came out at 8.7 ± 1.3 µM. Also, the “AChE genes (ace-1, ace-2) and inflammation related genes (F22E5.6, ZC239.12) expression” value with C. elegans CL4176 is “inhibited temperature raise-induced AChE and inflammation-associated gene expressions”. Besides, in the series with TLR4 and MyD88, the “LPS-induced TLR4 expression” value is given as “dramatically reversed the LPS-induced TLR4 expression” and the MyD88 expression entry was “suppressed the MyD88 expression”. The “LPS-induced AChE activity in primary neuronal cells” value in series [1] is reported as “markedly reduced the LPS-induced AChE activities”. In addition, in the series with NF-κB signaling pathway, the “NF-κB nuclear translocation (immunofluorescence)” value is on record as “inhibited LPS-induced NF-κB nuclear translocation”; the “nuclear NF-κB p65 levels (Western blot)” value is “reduced nuclear NF-κB p65 levels significantly”; the “phosphorylation levels of IKK and IκB” value was “down-regulated the phosphorylation levels of IKK and IκB”. The “neuron death in co-cultures (MTT)” value in series [2] (microglia treated prior to LPS stimulation (1 μg/ml), 48 h) is “reduced neuron death”. The “neuron apoptosis, TUNEL-positive cells” value in series [2] (microglial-neuronal co-culture, 1 μg/ml LPS) was “significantly reduced the numbers of TUNEL-positive cells”. The “neuronal morphology (crystal violet staining)” value in series [2] (microglial-neuronal co-culture, 1 μg/ml LPS, 48 h) is “markedly reversed the neuronal injury”. For the same compound, in the series with BV-2 cells, the “iNOS and COX-2 mRNA expression levels (q-PCR)” value is “dose-dependently decreasing the expression levels of both iNOS and COX-2”; the “proinflammatory cytokines mRNA levels” value is “significantly decreased proinflammatory cytokines”. For the same compound, the “direct toxicity to neurons (MTT)” value in the series with primary cortical neurons is on record as “no direct toxic to neurons”.
